In patent US9382295B2, “Cyclic depsipeptide compounds and their uses” (Cypralis Limited, priority 2012, dated 2016):
Values after ≈ are worked out from the molar mass of the structure shown. Where two headings read alike, the source gives them in different places. Numbered stars: 1 amine (or outer) side, 2 acyl side, 3 side chain; on linkers, the order of the positions; unused ones are H or OH. Square brackets hold non-standard residues; d marks the D form. Peptide text beside a SMILES is read from it. X26 = C[C@H](C/C=C/c1cccc(N2CCOCC2)n1)[C@@H](O)[C@H](C(=O)[*:2])N(C)[*:1]; X10 = Cc1cccc(/C=C/C[C@@H](C)[C@@H](O)[C@H](C(=O)[*:2])N(C)[*:1])n1; X21 = C[C@H](CCN(C)C1CCOCC1)[C@@H](O)[C@H](C(=O)[*:2])N(C)[*:1]; X23 = COC1CN(CC[C@@H](C)[C@@H](O)[C@H](C(=O)[*:2])N(C)[*:1])C1; X14 = C[C@H](CCCc1ncccn1)[C@@H](O)[C@H](C(=O)[*:2])N(C)[*:1]; X31 = COCCN(C)CC[C@@H](C)[C@@H](O)[C@H](C(=O)[*:2])N(C)[*:1]; X16 = C[C@H](CCN1CCOCC1)[C@@H](O)[C@H](C(=O)[*:2])N(C)[*:1]; d(aThr) = C[C@@H](O)[C@@H](N)C(=O)O; NMeL = CN[C@@H](CC(C)C)C(=O)O; dNMeL = CN[C@H](CC(C)C)C(=O)O; dNMeV = CN[C@@H](C(=O)O)C(C)C; Hiv = CC(C)[C@H](O)C(=O)O; dAbu = CC[C@@H](N)C(=O)O; Sar = CNCC(=O)O

Columns and labels:
cyclophilin A (Cyp A) = molecular target: T1, cyclophilin A (Cyp A) (Homo sapiens, UniProt P62937); assay: Protease-free PPIase assay, cyclophilin A; format: biochemical
T1 construct: purchased Sigma C3805
T1 sequence (P62937 whole entry): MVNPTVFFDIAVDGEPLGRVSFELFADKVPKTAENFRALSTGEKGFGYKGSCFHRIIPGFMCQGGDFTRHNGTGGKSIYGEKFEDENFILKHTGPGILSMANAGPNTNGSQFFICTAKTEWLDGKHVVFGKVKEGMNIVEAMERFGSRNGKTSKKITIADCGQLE
Experimental: (§1) The protease-free PPIase assay measures the rate of cis to trans conversion of a peptide substrate catalyzed by the enzymes cyclophilin A and cyclophilin D. Addition of a cyclophilin inhibitor (e.g., a test compound) slows the catalyzed rate and a Ki value is obtained. […] 35 mM HEPES pH 7.8, filtered through a 0.2 μm filter. 50 μM DTT was added prior to use each day and then the buffer was stored on ice. Human recombinant cyclophilin A (Cyp A) (Sigma C3805) enzyme was diluted to 1 μM with enzyme dilution buffer (20 mM HEPES pH 7.8, 40% glycerol, 50 μM DTT and 1 μM BSA) and stored at -20° C. Succinimide-[…]) (from Bachem AG, L-1400), 20 mg/ml prepared in 0.5 M LiCl in trifluoroethanol. All readings were taken with an Agilent 8453 Spectrophotometer which consists of a cuvette holder, stirrer and chiller to maintain a stirred cuvette temperature of 10.0±0.1° C. The temperature is monitored by the use of temperature probe. […] The inhibitor was diluted in 100% DMSO, and then added to the assay to a maximum final concentration of 0.5% DMSO in the assay. A blank spectrum was obtained, then 3 μL of enzyme was added (2 nM final concentration) and then 3 μL substrate (60 μM final concentration) added. The absorbance was measured at 330 nm for 300 s or 500 s for blank runs (NOTE: the substrate must be added in one quick injection and the measurements started immediately to minimize mixing errors). A first order rate equation was fitted to the absorbance data, for each concentration of inhibitor, to obtain the rate constant (the first 10 to 15 seconds were excluded as mixing causes errors in this portion of curve). The catalytic rate was calculated from the enzymatic rate constant minus the background rate constant. An exponential curve was generated using the catalytic rate constants versus the inhibitor concentration to obtain the Ki value for the inhibitor. The Ki value is indicative of the binding affinity between the test compound and cyclophilin A or cyclophilin D.

cyclophilin D (Cyp D) = cyclophilin D (Cyp D) (Homo sapiens, UniProt P30405); assay: Protease-free PPIase assay, cyclophilin D; format: biochemical
Chain of cyclophilin D (Cyp D) (P30405 30-207): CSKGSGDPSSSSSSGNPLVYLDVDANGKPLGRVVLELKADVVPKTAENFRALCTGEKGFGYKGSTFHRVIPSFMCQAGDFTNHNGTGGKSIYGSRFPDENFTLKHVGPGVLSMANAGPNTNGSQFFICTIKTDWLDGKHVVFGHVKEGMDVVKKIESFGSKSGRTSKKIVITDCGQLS
Experimental: as §1, with “ice.” for “ice. Human recombinant cyclophilin A (Cyp A) (Sigma C3805) enzyme was diluted to 1 μM with enzyme dilution buffer (20 mM HEPES pH 7.8, 40% glycerol, 50 μM DTT and 1 μM BSA) and stored at -20° C.”

[1] = Water solubility assay (pH 7.8 buffer); format: physicochemical
Experimental: ***Water Solubility Assay (Measured in pH 7.8 Buffer)
The onset of precipitation, if it occurred, was detected by an increase in absorbance at 650 nm.
Assay Buffer: 35 mM HEPES pH 7.8
Stock solutions of Control and Test Compounds: 10 mM in 100% DMSO
10 mM stock solutions of control and test compounds were prepared in 100% DMSO. A series of dilutions were prepared from the stock in DMSO so that the final concentrations in the assay were 0, 3.33, 10, 25, 50, 75 and 100 μM and DMSO was limited to 1%.
Assay buffer (247.5 μl) was placed into flat bottomed transparent 96-well plate. For blank samples DMSO (2.5 μl) was added. For test and control samples 2.5 μl of the appropriate DMSO dilution stocks were added to the appropriate well. All test and control compounds were performed in triplicate.
The plates were sealed with adhesive plate seal and shaken at 250 rpm at 25° C. for 18 h on a plate shaker.
After incubation the plate seals were taken off and any bubbles observed in wells removed. The plates were read on a SpectraMaxM5 with a 5 s pre-shake at 650 nm.
Data files were transferred to the appropriate worksheet and the solubility range of the compounds was calculated from the data.
The values shown in the tables indicate the concentration in μM (micromolar) at which the compound remains in solution.

SMILES	Ki (cyclophilin A (Cyp A))	Ki (cyclophilin D (Cyp D))	solubility at 18 h ([1]; pH 7.8)	Ki (cyclophilin A (Cyp A); protease-free PPIase assay, class symbols, read-out: CypA Ki)	Ki (cyclophilin D (Cyp D); protease-free PPIase assay, class symbols, read-out: CypD Ki)	solubility at 18 h ([1]; 35 mM HEPES buffer, 35 mM HEPES pH 7.8, 1% DMSO, 25° C., 18 h, concentration at which compound remains in solution, read-out: Solubility)
COCCN(C)CC[C@@H](C)[C@@H](O)[C@@H]1C(=O)N[C@H]([C@@H](C)O)C(=O)N(C)CC(=O)N(C)[C@@H](CC(C)C)C(=O)N[C@H](CC(C)C)C(=O)N(C)[C@H](CC(C)C)C(=O)N[C@H](C)C(=O)O[C@@H](C(C)C)C(=O)N(C)[C@H](CC(C)C)C(=O)N[C@H](CC(C)C)C(=O)N(C)[C@H](C(C)C)C(=O)N1C [Example 10, cyclo-{(3R,4R,5S)-4-(hydroxy)-3-methyl-5-(methylamino)-1-N-[(2-methoxy-ethyl)-methyl-amino]-hexanoic acid-Thr-Sar-MeLeu-Leu-MeLeu-Ala-D-Hiv-MeLeu-Leu-MeVal}] (cyclo([Hiv][dNMeL][dL][dNMeV][X31][d(aThr)][Sar][NMeL][dL][dNMeL][dA]))	25 to 100 nM	1 to 25 nM	> 100 µM			
COC1CN(CC[C@@H](C)[C@@H](O)[C@@H]2C(=O)N[C@H]([C@@H](C)O)C(=O)N(C)CC(=O)N(C)[C@@H](CC(C)C)C(=O)N[C@H](CC(C)C)C(=O)N(C)[C@H](CC(C)C)C(=O)N[C@H](C)C(=O)O[C@@H](C(C)C)C(=O)N(C)[C@H](CC(C)C)C(=O)N[C@H](CC(C)C)C(=O)N(C)[C@H](C(C)C)C(=O)N2C)C1 [Example 11, cyclo-{(3R,4R,5S)-4-(hydroxy)-3-methyl-5-(methylamino)-1-N-(3-methoxy-azetidinyl)-hexanoic acid-Thr-Sar-MeLeu-Leu-MeLeu-Ala-D-Hiv-MeLeu-Leu-MeVal}] (cyclo([Hiv][dNMeL][dL][dNMeV][X23][d(aThr)][Sar][NMeL][dL][dNMeL][dA]))	1 to 25 nM	1 to 25 nM	> 100 µM			
CC(C)C[C@@H]1C(=O)N[C@H](CC(C)C)C(=O)N(C)[C@H](C(C)C)C(=O)N(C)[C@H]([C@H](O)[C@H](C)CCN(C)C2CCOCC2)C(=O)N[C@H]([C@@H](C)O)C(=O)N(C)CC(=O)N(C)[C@@H](CC(C)C)C(=O)N[C@H](CC(C)C)C(=O)N(C)[C@H](CC(C)C)C(=O)N[C@H](C)C(=O)O[C@@H](C(C)C)C(=O)N1C [Example 12, cyclo-{(3R,4R,5S)-4-(hydroxy)-3-methyl-5-(methylamino)-1-N-(methyl-(tetrahydro-pyran-4-yl)-amino)-hexanoic acid-Thr-Sar-MeLeu-Leu-MeLeu-Ala-D-Hiv-MeLeu-Leu-MeVal}] (cyclo([Hiv][dNMeL][dL][dNMeV][X21][d(aThr)][Sar][NMeL][dL][dNMeL][dA]))	25 to 100 nM	1 to 25 nM	> 100 µM			
CC[C@H]1NC(=O)[C@@H]([C@H](O)[C@H](C)CCN2CCOCC2)N(C)C(=O)[C@@H](C(C)C)N(C)C(=O)[C@@H](CC(C)C)NC(=O)[C@@H](CC(C)C)N(C)C(=O)[C@H](C(C)C)OC(=O)[C@@H](C)NC(=O)[C@@H](CC(C)C)N(C)C(=O)[C@@H](CC(C)C)NC(=O)[C@H](CC(C)C)N(C)C(=O)CN(C)C1=O [Example 13, cyclo-[(3R,4R,5S)-4-(hydroxy)-3-methyl-5-(methylamino)-1-N-morpholino-hexanoic acid-Abu-Sar-MeLeu-Leu-MeLeu-Ala-D-Hiv-MeLeu-Leu-MeVal]] (cyclo([Hiv][dNMeL][dL][dNMeV][X16][dAbu][Sar][NMeL][dL][dNMeL][dA]))	1 to 25 nM	1 to 25 nM	25 to 50 µM (≈ 32.3 to 64.5 µg/mL)			
Cc1cccc(/C=C/C[C@@H](C)[C@@H](O)[C@@H]2C(=O)N[C@H]([C@@H](C)O)C(=O)N(C)CC(=O)N(C)[C@@H](CC(C)C)C(=O)N[C@H](CC(C)C)C(=O)N(C)[C@H](CC(C)C)C(=O)N[C@H](C)C(=O)O[C@@H](C(C)C)C(=O)N(C)[C@H](CC(C)C)C(=O)N[C@H](CC(C)C)C(=O)N(C)[C@H](C(C)C)C(=O)N2C)n1 [Example 14, cyclo-[(3R,4R,5S)-4-(hydroxy)-3-methyl-5-(methylamino)-1-(6-methyl-pyridin-2-yl)-hept-1-enoic acid-Thr-Sar-MeLeu-Leu-MeLeu-Ala-D-Hiv-MeLeu-Leu-MeVal]] (cyclo([Hiv][dNMeL][dL][dNMeV][X10][d(aThr)][Sar][NMeL][dL][dNMeL][dA]))	1 to 25 nM	1 to 25 nM	10 to 25 µM (≈ 13.2 to 33.1 µg/mL)			
CC(C)C[C@@H]1C(=O)N[C@H](CC(C)C)C(=O)N(C)[C@H](C(C)C)C(=O)N(C)[C@H]([C@H](O)[C@H](C)CCCc2ncccn2)C(=O)N[C@H]([C@@H](C)O)C(=O)N(C)CC(=O)N(C)[C@@H](CC(C)C)C(=O)N[C@H](CC(C)C)C(=O)N(C)[C@H](CC(C)C)C(=O)N[C@H](C)C(=O)O[C@@H](C(C)C)C(=O)N1C [Example 16, cyclo-[(3R,4R,5S)-4-(hydroxy)-3-methyl-5-(methylamino)-1-(pyrimidin-2-yl)-heptanoic acid-Thr-Sar-MeLeu-Leu-MeLeu-Ala-D-Hiv-MeLeu-Leu-MeVal]] (cyclo([Hiv][dNMeL][dL][dNMeV][X14][d(aThr)][Sar][NMeL][dL][dNMeL][dA]))	1 to 25 nM	1 to 25 nM	25 to 50 µM (≈ 32.8 to 65.7 µg/mL)			
CC(C)C[C@@H]1C(=O)N[C@H](CC(C)C)C(=O)N(C)[C@H](C(C)C)C(=O)N(C)[C@H]([C@H](O)[C@H](C)C/C=C/c2cccc(N3CCOCC3)n2)C(=O)N[C@H]([C@@H](C)O)C(=O)N(C)CC(=O)N(C)[C@@H](CC(C)C)C(=O)N[C@H](CC(C)C)C(=O)N(C)[C@H](CC(C)C)C(=O)N[C@H](C)C(=O)O[C@@H](C(C)C)C(=O)N1C [Example 18, cyclo-{(3R,4R,5S)-4-(hydroxy)-3-methyl-5-(methylamino)-1-(6-morpholin-4-yl-pyridin-2-yl)-hept-1-enoic acid-Thr-Sar-MeLeu-Leu-MeLeu-Ala-D-Hiv-MeLeu-Leu-MeVal}] (cyclo([Hiv][dNMeL][dL][dNMeV][X26][d(aThr)][Sar][NMeL][dL][dNMeL][dA]))				1 to 25 nM	1 to 25 nM	10 to 25 µM (≈ 14 to 34.9 µg/mL)
CC[C@H]1NC(=O)[C@@H]([C@H](O)[C@H](C)C/C=C/c2cccc(C)n2)N(C)C(=O)[C@@H](C(C)C)N(C)C(=O)[C@@H](CC(C)C)NC(=O)[C@@H](CC(C)C)N(C)C(=O)[C@H](C(C)C)OC(=O)[C@@H](C)NC(=O)[C@@H](CC(C)C)N(C)C(=O)[C@@H](CC(C)C)NC(=O)[C@H](CC(C)C)N(C)C(=O)CN(C)C1=O [Example 19, cyclo-[(3R,4R,5S)-4-(hydroxy)-3-methyl-5-(methylamino)-1-(6-methyl-pyridin-2-yl)-hept-1-enoic acid-Abu-Sar-MeLeu-Leu-MeLeu-Ala-D-Hiv-MeLeu-Leu-MeVal]] (cyclo([Hiv][dNMeL][dL][dNMeV][X10][dAbu][Sar][NMeL][dL][dNMeL][dA]))	1 to 25 nM	1 to 25 nM	10 to 25 µM (≈ 13.1 to 32.7 µg/mL)			
